Results reported in US20100075343A1, “NOVEL PEPTIDES” (priority 2007, published 2010).

Columns and labels:
[1] = test system: medulla oblongata of apoaequorin-expressing mice; assay: Intracellular calcium ion increase (aequorin luminescence), medulla oblongata; format: cell-based, mouse; settings: peptide at final concentrations of 1 μmol/L and 5 μmol/L
Procedure: (§1) A hypothalamus, pituitary gland, kidney, heart, blood vessel, or a portion of brain tissue is collected from transgenic mice systemically expressing apoaequorin (WO02/010371) produced by introducing an apoaequorin gene expression vector into fertilized eggs. The obtained hypothalamus, pituitary gland, kidney, heart, blood vessel, or brain tissue is cut finely into pieces, suspended in a medium containing coelenterazine, and then incubated to incorporate coelenterazine into the cells to form aequorin (a complex of apoaequorin and coelenterazine). Since aequorin luminesces upon binding to intracellular calcium ions, the relative luminescence level in cells before and after addition of a medium containing the peptide or a pharmaceutically acceptable salt thereof is measured in a luminometer every second over time and is used as an indicator of intracellular calcium ion concentration. Increase in the relative luminescence level due to addition of the peptide or pharmaceutically acceptable salt thereof confirms that the peptide or pharmaceutically acceptable salt thereof has the activity to increase intracellular calcium ion concentration.
(§2) Whether Peptides 1 to 8 synthesized in Example 2 have the activity of increasing intracellular calcium ion concentration was investigated using the organs of transgenic mice introduced with the apoaequorin gene and systemically expressing apoaequorin (hereinafter referred to as apoaequorin-expressing mice). In apoaequorin-expressing mouse cells, light is emitted when apoaequorin binds to a calcium ion in the presence of the luminescent substrate coelenterazine and thus the intracellular calcium ion concentration can be monitored. Patent Document (WO02/010371) discloses the method for producing apoaequorin-expressing mice, method for evaluating biologically active substances that use biological samples derived from the mice, and experimental results of evaluating biologically active peptides using the mouse organs as shown below. […] Therefore, apoaequorin-expressing mice can be used in the evaluation of the physiological activities of novel peptides.
(§3) Apoaequorin-expressing mice were produced according to the method disclosed in Reference Example 4 of Patent Document (WO02/010371). The apoaequorin-expressing mice were sacrificed, individual organs including thymus, hypothalamus, spleen, bone, aorta, heart, kidney, adrenal gland, pancreas, pituitary gland, uterus, medulla oblongata, and spinal cord were removed; and each of the organs was cut into small cubes of approximately 1 to 2 mm^3. Next, in 5-mL tubes (Rohren-Tubes; manufactured by Sarstedt, No. 55.476), three portions of each of the prepared organs were added to 50 μL of a 10 μmol/L solution of coelenterazine (manufactured by Molecular Probes) dissolved in RPMI 1640 medium, and these were cultured at 37° C. for three hours. After culturing, RPMI 1640 medium was added, and then Peptides 1 to 5 dissolved in RPMI 1640 medium were added 25 seconds after the addition of RPMI 1640 until each peptide had final concentrations of 1 μmol/L and of 5 μmol/L, and the relative luminescence levels were measured every second immediately after the addition of RPMI 1640 medium by using a luminometer (AutoLumat LB953, manufactured by Berthold).

[2] = test system: hypothalamic cells of the apoaequorin-expressing mice; assay: Intracellular calcium ion increase (aequorin luminescence), hypothalamus; format: cell-based, mouse; settings: for increase of intracellular calcium concentration in hypothalamic cells (RLU per second): 1 μmol/L peptide, added at 25 seconds; for luminescence (intracellular calcium ion increase) in hypothalamus: peptide at final concentrations of 1 μmol/L and 5 μmol/L
Procedure: as §1, §2, §3

[3] = test system: pituitary cells of the apoaequorin-expressing mice; assay: Intracellular calcium ion increase (aequorin luminescence), pituitary gland; format: cell-based, mouse; settings: for increase of intracellular calcium concentration in pituitary cells (RLU per second): added at 25 seconds; for luminescence (intracellular calcium ion increase) in pituitary gland: peptide at final concentrations of 1 μmol/L and 5 μmol/L
Procedure: as §1, §2, §3

[4] = test system: cardiac cells of the apoaequorin-expressing mice; assay: Intracellular calcium ion increase (aequorin luminescence), heart; format: cell-based, mouse; settings: for increase of intracellular calcium concentration in cardiac cells (RLU per second): 1 μmol/L peptide, added at 25 seconds; for luminescence (intracellular calcium ion increase) in heart: peptide at final concentrations of 1 μmol/L and 5 μmol/L
Procedure: as §1, §2, §3

[5] = test system: pancreatic cells of the apoaequorin-expressing mice; assay: Intracellular calcium ion increase (aequorin luminescence), pancreas; format: cell-based, mouse; settings: for luminescence (intracellular calcium ion increase) in pancreas: peptide at final concentrations of 1 μmol/L and 5 μmol/L
Procedure: as §1
Whether Peptides 1 to 8 synthesized in Example 2 have the activity of increasing intracellular calcium ion concentration was investigated using the organs of transgenic mice introduced with the apoaequorin gene and systemically expressing apoaequorin (hereinafter referred to as apoaequorin-expressing mice). In apoaequorin-expressing mouse cells, light is emitted when apoaequorin binds to a calcium ion in the presence of the luminescent substrate coelenterazine and thus the intracellular calcium ion concentration can be monitored. Patent Document (WO02/010371) discloses the method for producing apoaequorin-expressing mice, method for evaluating biologically active substances that use biological samples derived from the mice, and experimental results of evaluating biologically active peptides using the mouse organs as shown below. […]

[6] = test system: male rats; settings: direct administration to the PVN of male rats; Non-patent Document 7; cited from earlier work
[7] = test system: kidney cells of the apoaequorin-expressing mice; assay: Intracellular calcium ion increase (aequorin luminescence), kidney; format: cell-based, mouse
Procedure: as §1, §2, §3

[8] = test system: thymus of apoaequorin-expressing mice; assay: Intracellular calcium ion increase (aequorin luminescence), thymus; format: cell-based, mouse; settings: peptide at final concentrations of 1 μmol/L and 5 μmol/L
Procedure: as §1, §2
(§4) Apoaequorin-expressing mice were produced according to the method disclosed in Reference Example 4 of Patent Document (WO02/010371). […] After culturing, RPMI 1640 medium was added, and then Peptides 1 to 5 dissolved in RPMI 1640 medium were added 25 seconds after the addition of RPMI 1640 until each peptide had final concentrations of 1 μmol/L and of 5 μmol/L, and the relative luminescence levels were measured every second immediately after the addition of RPMI 1640 medium by using a luminometer (AutoLumat LB953, manufactured by Berthold).

[9] = test system: aortic cells of the apoaequorin-expressing mice; assay: Intracellular calcium ion increase (aequorin luminescence), aorta; format: cell-based, mouse
Procedure: as §1, §2, §4

[10] = test system: spleen of apoaequorin-expressing mice; assay: Intracellular calcium ion increase (aequorin luminescence), spleen; format: cell-based, mouse; settings: peptide at final concentrations of 1 μmol/L and 5 μmol/L
Procedure: as §1, §2, §4

[11] = 1 μmol/L peptide, added at 25 seconds
[12] = peptide at final concentrations of 1 μmol/L and 5 μmol/L

Substance	increase of intracellular calcium concentration in hypothalamic cells (RLU per second) [2]	luminescence (intracellular calcium ion increase) in hypothalamus [2]	increase of intracellular calcium concentration in pituitary cells (RLU per second) ([3]; 1 μmol/L peptide)	luminescence (intracellular calcium ion increase) in pituitary gland [3]	erection inducing activity [6]	also measured
Peptide 2: amino acid sequence at position 195 to 206 in human VGF (VNLESPGPERVW; synthetic Peptide 2, VGF-related peptide, human VGF positions 195-206)	increase of intracellular calcium concentration	luminescence was observed	increase of intracellular calcium concentration	luminescence was observed	–	luminescence (intracellular calcium ion increase) in medulla oblongata [1]: luminescence was observed; increase of intracellular calcium concentration in cardiac cells (RLU per second) [4]: increase of intracellular calcium concentration; luminescence (intracellular calcium ion increase) in heart [4]: luminescence was observed
Peptide 10: amino acid sequence at position 485 to 503 in human VGF (NAPPEPVPPPRAAPAPTHV; synthetic Peptide 10, VGF-related peptide, human VGF positions 485-503)	increase of intracellular calcium concentration	luminescence was observed	increase of intracellular calcium concentration	luminescence was observed	–	increase of intracellular calcium concentration in pancreatic cells (RLU per second) ([5]; 5 μmol/L peptide, added at 25 seconds): increase of intracellular calcium concentration; luminescence (intracellular calcium ion increase) in pancreas [5]: luminescence was observed
rat VGF (577-617): known partial peptide, positions 577-617 of rat VGF (HHPDLEAQARRAQEEADAEERRLQEQEELENYIEHVLLHRP; UniProt P20156 577-617, looked up, fragment)	–	–	–	–	showed an erection inducing activity	–
rat VGF (599-617): known partial peptide, positions 599-617 of rat VGF (LQEQEELENYIEHVLLHRP; UniProt P20156 599-617, looked up, fragment)	–	–	–	–	showed an erection inducing activity	–
rat VGF (588-617): known partial peptide, positions 588-617 of rat VGF (AQEEADAEERRLQEQEELENYIEHVLLHRP; UniProt P20156 588-617, looked up, fragment)	–	–	–	–	showed an erection inducing activity	–
Peptide 4: amino acid sequence at position 533 to 543 in human VGF (EEDEVYPPGPY; synthetic Peptide 4, VGF-related peptide, human VGF positions 533-543)	increase of intracellular calcium concentration	luminescence was observed	increase of intracellular calcium concentration	luminescence was observed	–	luminescence (intracellular calcium ion increase) in pancreas [5]: luminescence was observed
Peptide 3: amino acid sequence at position 485 to 495 in human VGF (NAPPEPVPPPR; synthetic Peptide 3, VGF-related peptide, human VGF positions 485-495)	increase of intracellular calcium concentration	luminescence was observed	–	luminescence was observed	–	luminescence (intracellular calcium ion increase) in medulla oblongata [1]: luminescence was observed; increase of intracellular calcium concentration in kidney cells (RLU per second) [7, 11]: increase of intracellular calcium concentration; luminescence (intracellular calcium ion increase) in kidney [7, 12]: luminescence was observed; increase of intracellular calcium concentration in pituitary cells (RLU per second) ([3]; 5 μmol/L peptide): increase of intracellular calcium concentration; luminescence (intracellular calcium ion increase) in thymus [8]: luminescence was observed
Peptide 7: amino acid sequence at position 400 to 417 in human VGF (QNALLFAEEEDGEAGAED; synthetic Peptide 7, VGF-related peptide, human VGF positions 400-417)	increase of intracellular calcium concentration	luminescence was observed	increase of intracellular calcium concentration	luminescence was observed	–	increase of intracellular calcium concentration in aortic cells (RLU per second) [9, 11]: increase of intracellular calcium concentration; luminescence (intracellular calcium ion increase) in aorta [9, 12]: luminescence was observed; luminescence (intracellular calcium ion increase) in spleen [10]: luminescence was observed; increase of intracellular calcium concentration in cardiac cells (RLU per second) [4]: increase of intracellular calcium concentration; luminescence (intracellular calcium ion increase) in heart [4]: luminescence was observed
